Measurements published in patent US9815796B2 (Merck Sharp & Dohme Corp., priority 2013, dated 2017).
Where two headings read alike, the source gives them in different places.

Key:
[1] = reported in Brandon et al., Annual Reports in Medicinal Chemistry 42: 4-5, 2007; cited from earlier work
other PDE isoforms = details: reported in Brandon et al., Annual Reports in Medicinal Chemistry 42: 4-5, 2007; cited from earlier work
human PDE2A1 = human PDE2A1 (Homo sapiens (Human), UniProt O00408); test: IMAP FP PDE selectivity panel, human PDE2A1; assay type: biochemical
Outline: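 IMAP FP format: substrate 50 nM FAM-cAMP plus 1000 nM cGMP, enzyme (insect-cell GST-tagged human PDE2A1) at ~20% conversion, 60 min reaction at room temperature. Apparent inhibition constants calculated from parallel/perpendicular fluorescence with KM 10,000 nM.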

Rhesus PDE2A3 = Rhesus PDE2A3 (Macaca mulatta, UniProt B3VTJ2); test: PDE2 fluorescence polarization (IMAP FP) inhibition assay, rhesus enzyme; assay type: biochemical, rhesus macaque
Outline: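 IMAP FP (mP from parallel and perpendicular fluorescence against substrate-only control) was read ≥1 h after adding binding reagent. The preceding 60 min room-temperature reaction contained FAM-cAMP (50 nM) and cGMP (1 uM) in pH 7.2 Tris buffer with MgCl2 and DTT. Enzyme was supernatant of sonicated AD293 cells expressing rhesus PDE2A3; compounds were 3-fold titrated, DMSO 1% final.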

[2] = Human PDE2, Lab B, read-out: Human PDE2 Ki (nM) - Lab B
[3] = Rhesus PDE2, Lab B, read-out: Rhesus PDE2 Ki (nM) - Lab B
[4] = Human PDE2, Lab A, read-out: Human PDE2 Ki (nM) - Lab A
[5] = Rhesus PDE2, Lab A, read-out: Rhesus PDE2 Ki (nM) - Lab A

Sequence of human PDE2A1 (O00408 other isoform, or with tags, fused parts or gaps): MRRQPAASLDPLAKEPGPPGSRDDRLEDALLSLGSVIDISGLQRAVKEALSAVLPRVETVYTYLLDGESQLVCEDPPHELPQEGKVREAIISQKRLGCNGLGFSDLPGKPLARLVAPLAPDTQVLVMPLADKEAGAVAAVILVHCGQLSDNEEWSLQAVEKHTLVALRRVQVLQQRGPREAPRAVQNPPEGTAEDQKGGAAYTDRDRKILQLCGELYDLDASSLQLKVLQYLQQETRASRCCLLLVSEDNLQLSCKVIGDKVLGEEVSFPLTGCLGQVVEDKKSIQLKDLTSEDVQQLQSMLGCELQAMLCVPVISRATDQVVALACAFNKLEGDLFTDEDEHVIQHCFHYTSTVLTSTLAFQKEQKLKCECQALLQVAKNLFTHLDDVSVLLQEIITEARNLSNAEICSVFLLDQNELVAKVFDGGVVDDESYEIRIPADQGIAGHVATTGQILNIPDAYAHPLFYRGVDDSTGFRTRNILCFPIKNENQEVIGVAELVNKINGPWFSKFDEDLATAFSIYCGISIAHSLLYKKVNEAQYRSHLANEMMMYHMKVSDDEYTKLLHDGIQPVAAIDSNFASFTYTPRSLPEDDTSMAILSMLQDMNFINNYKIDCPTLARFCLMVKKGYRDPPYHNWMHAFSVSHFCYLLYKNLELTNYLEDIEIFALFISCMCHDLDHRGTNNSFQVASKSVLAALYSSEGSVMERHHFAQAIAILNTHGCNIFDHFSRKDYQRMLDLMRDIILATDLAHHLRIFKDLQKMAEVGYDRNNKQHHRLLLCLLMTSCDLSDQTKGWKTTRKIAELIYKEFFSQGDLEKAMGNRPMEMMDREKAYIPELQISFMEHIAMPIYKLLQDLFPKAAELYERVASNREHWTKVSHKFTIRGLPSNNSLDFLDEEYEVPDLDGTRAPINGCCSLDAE
Sequence of Rhesus PDE2A3 (B3VTJ2 1-941): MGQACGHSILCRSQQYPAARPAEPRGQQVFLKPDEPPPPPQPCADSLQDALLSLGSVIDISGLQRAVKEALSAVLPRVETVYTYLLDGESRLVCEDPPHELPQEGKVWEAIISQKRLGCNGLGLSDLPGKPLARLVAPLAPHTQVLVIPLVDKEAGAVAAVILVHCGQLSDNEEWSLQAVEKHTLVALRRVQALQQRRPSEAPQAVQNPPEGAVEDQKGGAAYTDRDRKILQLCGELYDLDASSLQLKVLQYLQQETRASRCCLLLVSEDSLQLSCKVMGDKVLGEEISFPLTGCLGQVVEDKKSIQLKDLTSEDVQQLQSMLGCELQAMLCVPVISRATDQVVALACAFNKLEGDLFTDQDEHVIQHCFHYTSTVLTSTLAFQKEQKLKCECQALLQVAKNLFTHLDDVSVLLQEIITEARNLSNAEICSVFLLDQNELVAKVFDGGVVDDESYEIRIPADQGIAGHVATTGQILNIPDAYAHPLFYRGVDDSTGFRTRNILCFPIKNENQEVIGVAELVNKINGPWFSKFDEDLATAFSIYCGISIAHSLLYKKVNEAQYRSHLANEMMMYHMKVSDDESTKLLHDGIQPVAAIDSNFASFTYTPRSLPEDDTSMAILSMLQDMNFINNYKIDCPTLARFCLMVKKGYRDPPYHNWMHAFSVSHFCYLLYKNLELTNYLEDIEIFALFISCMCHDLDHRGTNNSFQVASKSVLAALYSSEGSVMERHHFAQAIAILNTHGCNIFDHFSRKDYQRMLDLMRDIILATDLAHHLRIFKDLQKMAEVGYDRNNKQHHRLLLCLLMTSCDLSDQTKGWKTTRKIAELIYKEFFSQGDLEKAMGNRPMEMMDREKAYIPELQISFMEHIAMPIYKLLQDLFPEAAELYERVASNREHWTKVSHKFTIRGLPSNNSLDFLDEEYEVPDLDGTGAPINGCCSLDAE

Ki (human PDE2A1; [2])	Ki (Rhesus PDE2A3; [3])	Ki (human PDE2A1; [4])	Ki (Rhesus PDE2A3; [5])	SMILES	brain penetration [1]	potency at other PDE isoforms (other PDE isoforms)
0.64 nM	0.68 nM			COc1ccc(Cc2nc(C(=O)N[C@@H](c3ccc(C(F)(F)F)cc3)C(C)(C)C)cc(=O)[nH]2)cc1F [Example 457, N-{(1R)-2,2-dimethyl-1-[4-(trifluoromethyl)phenyl]propyl}-2-(3-fluoro-4-methoxybenzyl)-6-oxo-1,6-dihydropyrimidine-4-carboxamide]		
3.4 nM	3.3 nM			CC[C@@H](NC(=O)c1cc(=O)[nH]c(Cc2ccc(OC)cc2)n1)c1ccc(S(F)(F)(F)(F)F)cc1 [Example 482, 2-(4-methoxybenzyl)-6-oxo-N-{(1R)-1-[4-(pentafluoro-λ^6-sulfanyl)phenyl]propyl}-1,6-dihydropyrimidine-4-carboxamide]		
		215 nM	208 nM	Cc1nc(C(=O)NC(C)c2ccc3cc[nH]c3c2)cc(=O)[nH]1 (stereo not shown) [Example 303, N-(1-(1H-indol-6-yl)ethyl)-2-methyl-6-oxo-1,6-dihydropyrimidine-4-carboxamide]		
38 nM		43 nM	54 nM	CCc1nc(C(=O)N[C@H](C)c2ccc(C(F)(F)F)cc2)cc(=O)[nH]1 [Example 134, 2-ethyl-6-oxo-N-{(1R)-1-[4-(trifluoromethyl)phenyl]ethyl}-1,6-dihydropyrimidine-4-carboxamide]		

Further lines, the compound ahead of its results:

SMILES	Ki (human PDE2A1; [2])	Ki (Rhesus PDE2A3; [3])	Ki (human PDE2A1; [4])	Ki (Rhesus PDE2A3; [5])	brain penetration [1]	potency at other PDE isoforms (other PDE isoforms)
COc1ccc(Cc2nn3c([C@@H](CCCc4ccccc4)[C@@H](C)O)nc(C)c3c(=O)[nH]2)cc1OC [BAY 60-7550]					limited brain penetration	significant potency at other PDE isoforms
C[C@@H](NC(=O)c1cc(=O)[nH]c(C2CC2)n1)c1ccc(OC(F)(F)F)c(F)c1 [Example 296, 2-cyclopropyl-N-{(1R)-1-[3-fluoro-4-(trifluoromethoxy)phenyl]ethyl}-6-oxo-1,6-dihydropyrimidine-4-carboxamide]			3.1 nM	6.3 nM		
CC(C)[C@@H](NC(=O)c1cc(=O)[nH]c(-c2ncccn2)n1)c1ccc(C(F)(F)F)cc1 [Example 73, N-{(1R)-2-methyl-1-[4-(trifluoromethyl)phenyl]propyl}-6-oxo-1,6-dihydro-2,2′-bipyrimidine-4-carboxamide]	5.3 nM	4.9 nM		4.1 nM		
